Test results as given in patent publication US5767085A, “Compounds with growth hormone releasing properties” (Novo Nordisk A/S, priority 1993, dated 1998).
pEC50: −log10 of the molar value. Where a SMILES comes first, the peptide text is derived from it. [ ]: non-standard residue; d: D form. d1Nal = N[C@H](Cc1cccc2ccccc12)C(=O)O; d2Nal = N[C@H](Cc1ccc2ccccc2c1)C(=O)O; Aib = CC(C)(N)C(=O)O

test system: rat pituitary cells; assay: In-vitro GH release assay using rat pituitary cells (rGH measured by SPA); format: cell-based; conditions: GH secretion from cultured male rat anterior pituitary cells, 15 min stimulation
Method: An in-vitro assay using rat pituitary cells was established to study the effect of different GH secretagogues. The mixed pituitary cell culture was isolated from the anterior pituitary of male rats and cultured for 3 days. After washing the cells were stimulated for 15 min and the amount of GH secreted measured in the culture supernatant. The isolation of rat pituitary cells was a modification of 0. Sartor et al., Endocrinolog 116, 1985, pp. 952-957. Pituitaries were discharged from 250 g male Sprague-Dawley rats after decapitation. The neurointermediate lobes were removed and the remainder was placed in Grey's medium supplemented with 0.25% glucose, 2× non essential amino acid and 1% BSA (isolation buffer). The glands were cut into small pieces and transferred to a flask containing 3 ml isolation buffer+11.5 mg trypsin and 1000 μg DNase and incubated for 35 min at 37° C., 95% ° 2 and 70 rotations per min. The fragments were washed 3 times by sedimentation in isolation buffer and aspirated into single cells by using a pasteur pipet. After dispersion the cells were filtered though a nylon filter (160 jum) to remove undigested tissue. The cells were washed 3 times with isolation buffer supplemented with trypsin inhibitor (0.75 mg/ml) and resuspended in culture medium (DMEM supplemented with 25 mM HEPES, 4mM Glutamine, 0.75% sodium bicarbonate, 2.5% FCS, 3% horse serum, 10% rat serum, 1 nM T3 and 40 gg/L dexamethasone) to a density of 2×10^5 cells/ml. The cells were seeded into microtiter plates, 200 μl/well and cultured for 3 days at 37° C.and 8% CO2. Following the culture period the cells were washed twice with stimulation buffer (HBSS supplemented with 1% BSA, 0.25% D-glucose and 25 mM HEPES) and preincubated for 1 hour. The buffer was then removed and new stimulation buffer containing the peptide was added and the plates were incubated for 15 min at 37° C.and 5% CO2. The medium was collected and analyzed for rat growth hormone (rGH) content in a scintillation proximity assay (SPA) as follows (SPA, essentially as described in U.S. Pat. No. 4,568,649, Hart and […], Mol.Immunol. 16, 1979, pp. 265-269, or Udenfriend et al., Proc.Natl.Acad.Sci. USA 82, 1985, pp. 8672-8676). The rGH assay was performed in OptiPlates (96-well plates) suitable for direct counting in a […] TopCount (β-scintillation counter). Assay Protocol: 40 μl buffer 10 μl sample (incubated stimulation buffer) […] 50 μl rabbit anti-rGH 50 μl SPA reagent (anti-rabbit antibody) The plates are sealed and placed on a plate shaker for 30 minutes followed by 10 hours of incubation and settling at 10-15° C.and counting. In the SPA, rGH bound to an anti-GH rabbit antibody (primary antibody) is reacted with a second antibody bound to fluomicrospheres (SPA Type II RIA available from Amersham). Any radiolabelled rGH which is bound to the primary antibody will be immobilized on the fluomicrospheres which will then produce light. Measurement in a β-scintillation counter makes it possible to calculate the amount of radiolabelled rGH. The amount of radiolabelled rGH bound to the fluomicrospheres decreases with an increasing content of rGH in the sample.

SMILES | pEC50 | Emax (% of GHRP-6)
C[C@H](N)C(=O)N[C@@H](Cc1ccccc1)C(=O)N[C@H](Cc1ccc2ccccc2c1)C(=O)N[C@H](Cc1ccccc1)C(=O)N[C@@H](CCCCN)C(N)=O [Example 10, H--Ala--Phe--D-2Nal-D--Phe--Lys--NH2] (H-AF[d2Nal][dF]K-NH2) | 8.70 | 90 % of GHRP-6
C[C@H](N)C(=O)N[C@@H](Cc1c[nH]cn1)C(=O)N[C@H](Cc1cccc2ccccc12)C(=O)N[C@H](Cc1ccccc1)C(=O)N[C@@H](CCCCN)C(N)=O [Example 51, H--Ala--His--D-1Nal-D--Phe--Lys--NH2] (H-AH[d1Nal][dF]K-NH2) | 8.00 | 85 % of GHRP-6
CC(C)(N)C(=O)N[C@@H](Cc1ccccc1)C(=O)N[C@H](Cc1ccc2ccccc2c1)C(=O)N[C@H](Cc1ccccc1)C(=O)N[C@@H](CCCCN)C(N)=O [Example 83, H--Aib--Phe--D-2Nal-D--Phe--Lys--NH2] (H-[Aib]F[d2Nal][dF]K-NH2) | 8.10 | 75 % of GHRP-6
C[C@H](NC(=O)[C@@H](Cc1ccccc1)NC(=O)[C@@H](Cc1ccc2ccccc2c1)NC(=O)[C@H](Cc1c[nH]cn1)NC(=O)C(C)(C)N)C(N)=O [Example 88, H--Aib--His--D-2Nal-D--Phe--Ala--NH2] (H-[Aib]H[d2Nal][dF]A-NH2) | 7.96 | 80 % of GHRP-6
